Like-named read-outs stand apart in the source and are kept apart here.

Data set [1] relates to KRAS^G12C-mutated MIA-PA-CA-2 cells. The experiment in a line: cells. As to conditions: Homo sapiens, MIA PaCa-2, 72 h. The method, then: The main reagent used in this assay included CellTiter-Glo (Promega, Cat. No. G7573).
The main instrument used in this assay was PerkinElmer EnVision multi-function microplate reader.
The fluorescence value was read by EnVision. • 6) Data analysis: The inhibition rate of cells in each well was calculated according to the following equation:
Y=Bottom+(Top−Bottom)/(1+10^((Log IC50−X)*HillSlope))

The nature of data set [2]: Pharmacokinetics by oral administration and intravenous injection in CD mice. Format: in vivo. As to conditions: for Area under the plasma concentration-time curve, AUCu: AUC0-last × PPB(Unbound %); for Vd: CD, iv, 2 mg/kg; for AUC(0-t): read-out: Area under the plasma concentration-time curve, AUC0-last. The method, then:
The mixture was vortexed and sonicated to prepare a 1 mg/mL clear solution, which was filtered through a microporous membrane for later use. Male CD mice aged 7 to 10 weeks were selected, and administered candidate compound solutions intravenously or orally. Whole blood was collected for a certain period of time, and prepared to obtain plasma. Drug concentration was analyzed by LC-MS/MS method, and pharmacokinetic parameters were calculated by Phoenix WinNonlin software (Pharsight, USA).

Data set [3] is described as follows: Stability in plasma, human. Format: in vitro ADME. As to conditions: 2 μM, 37° C. The method, then: Stabilities of the assay compound in plasma of CD-1 mice and human were assayed, respectively. Cryopreserved plasma was thawed for 10 to 20 min. After the plasma was completely thawed, it was placed in a centrifuge and centrifuged at 3220×g for 5 min to remove any suspended matter and sediment in the plasma. 96-well incubation plates were prepared and named T0, T10, T30, T60, T120, respectively. 98 μL of blank plasmas of mouse, rat, canine, monkey and human were added to the corresponding incubation plates, then 2 μL of working solutions of the compound or the control compound were added to the corresponding plates in duplicate. All samples were incubated in a 37° C. water bath. The final incubation concentrations of the compound and the control compounds bisacodyl, enalapril maleate, procaine and probanthine were 2 μM, and the final organic phase content was 2.0%. At the end of incubation for each time point, the corresponding incubation plate was removed and 400 μL of a solution of 200 ng/mL of tolbutamide and labetalol in acetonitrile was added to each corresponding sample well to precipitate the protein. All sample plates were sealed and shaken well, and then centrifuged at 3220×g for 20 minutes. 50 μL of supernatant was taken out and diluted in 100 μL of ultrapure water. All samples were mixed well and then analyzed by LC/MS/MS.

The nature of data set [4]: Protein binding rate in plasma by equilibrium dialysis, beagle dogs. As to conditions: 2 μM, equilibrium dialysis 4 hours. It is filed as in vitro ADME. The method, then: Protein binding rate of the assay compound in plasma of CD-1 mice, SD rats, beagle dogs, cynomolgus monkeys and human was determined by equilibrium dialysis. Plasma samples with a compound concentration of 2 μM were prepared using plasma of the above five species, placed in a 96-well equilibrium dialysis device, and dialyzed with phosphate buffer solution at 37±1° C. for 4 hours. Warfarin was used as the control compound in this assay. The concentrations of the assay compound in plasma and dialysis buffer were determined by LC-MS/MS method.

Data set [5] concerns human pancreatic cancer Mia PaCa-2 cells. The experiment in a line: Pharmacodynamics in vivo, subcutaneously transplanted Mia PaCa-2 tumor model. As to conditions: day 22 of administration. On the set-up: species or system Balb/c Nude mice. The method, then: Assay on pharmacodynamics in vivo in a subcutaneously transplanted tumor model of human pancreatic cancer Mia PaCa-2 cells in Balb/c Nude mice
Cell culture: Human pancreatic cancer Mia PaCa-2 cells (ATCC-CRL-1420) were cultured in monolayer in vitro in DMEM medium with 10% fetal calf serum and 2.5% horse serum in a 37° C., 5% carbon dioxide incubator. Cells were passaged by routine digestion with trypsin-EDTA twice a week. When the cell saturation reached 80%-90% and the cell number met the requirement, the cells were harvested, counted, and resuspended in an appropriate amount of PBS. Matrigel was added in a ratio of 1:1 to obtain a cell suspension with a cell density of 25×10^6 cells/mL.
Cell inoculation: 0.2 mL (5×10^6 cells/mouse) of Mia PaCa-2 cells (plus Matrigel, 1:1 by volume) were subcutaneously inoculated into the right back of each mouse. When the average tumor volume reached 190 mm^3, mice were randomized into groups based on tumor volume and administration was initiated according to the protocol in Table 15.
Tumor diameter was measured with vernier caliper twice a week. The calculation formula of tumor volume was: V=0.5a×b^2, where a and b represent the long and short diameters of the tumor, respectively.
The anti-tumor efficacy of compound was evaluated by TGI (%) or relative tumor proliferation rate T/C (%). Relative tumor proliferation rate T/C (%)=TRTV/CRTV×100% (TRTV: RTV in a treatment group; CRTV: RTV in a negative control group). The relative tumor volume (RTV) was calculated according to results of tumor measurement, and the calculation formula was RTV=Vt/V0, where V0 was average tumor volume measured at the time of administration by group (i.e., D0), and Vt was average tumor volume at the time of a certain measurement. For TRTV and CRTV, data on the same day were used.
TGI (%) reflected tumor growth inhibition rate. TGI(%)=[(1−(average tumor volume at the end of administration of a treatment group−average tumor volume at the beginning of administration of the treatment group))/(average tumor volume at the end of treatment of a vehicle control group−average tumor volume at the beginning of treatment of the vehicle control group)]×100%.

For `C=C(F)C(=O)N1CCN(c2nc(OC[C@@]34CCCN3C[C@H](F)C4)nc3c2CO[C@H](c2c(F)c(N)cc(C)c2C(F)(F)F)C3)C[C@@H]1CC#N` [Compound of formula (I)], the 50% inhibitory concentration (IC50) in data set [1] is 440 pM. Also, the “Area under the plasma concentration-time curve, AUCu” value was 0.1556 µM·h in data set [2] (intravenous injection, 2.0 mg/kg) and 0.1706 µM·h in data set [2] (oral administration, 10.3 mg/kg). For the same compound, the Vd in data set [2] (male, mouse, plasma, intravenous injection, 2.0 mg/kg, Vdss/PPB(Unbound %), read-out: Apparent volume of distribution, Vdss, u) amounted to 32.3 L/kg; in data set [2] (male, mouse, plasma, intravenous injection, 2.0 mg/kg, read-out: Apparent volume of distribution, Vdss), 3.9 L/kg. In addition, the AUC(0-t) in data set [2] (male, mouse, plasma, intravenous injection, 2.0 mg/kg) is 1.3 µM·h; in data set [2] (male, mouse, plasma, oral administration, 10.3 mg/kg), 1.42 µM·h. The clearance in data set [2] (male, mouse, plasma, intravenous injection, 2.0 mg/kg, read-out: Clearance rate, CL) was 40.6 mL/min/kg. Besides, the half-life in data set [2] (male, mouse, plasma, intravenous injection, 2.0 mg/kg, read-out: Half-life time, T1/2 (converted)) is 1.7 h. The bioavailability in data set [2] (male, mouse, plasma, oral administration, 10.3 mg/kg, read-out: Bioavailability F (%)) stood at 21.9%. In data set [2] (male, mouse, plasma, oral administration, 10.3 mg/kg, read-out: Peak concentration, Cmax), the Cmax was found to be 431 nM. Besides, the Tmax in data set [2] (male, mouse, plasma, oral administration, 10.3 mg/kg, read-out: Time-to-peak, Tmax) is 1 h. The “Peak concentration, Cmax, u” value in data set [2] (oral administration, 10.3 mg/kg, Cmax × PPB(Unbound %)) is on record as 51.7 nM. Besides, the “Detection of assay compound content within 120 min” value in data set [3] is 93%. For the same compound, in data set [4], the “Protein unbound rate (%)” value was determined as 3.3%. Further, the Average tumor volume is reported as 249.87 mm^3 in data set [5] (10 mg/kg PO QD) and 124.14 mm^3 in data set [5] (30 mg/kg PO QD). The values for the T/C in data set [5] (10 mg/kg PO QD) and in data set [5] (30 mg/kg PO QD) were 12.39% and 6.16%, respectively. In addition, the values for the TGI in data set [5] (10 mg/kg PO QD) and in data set [5] (30 mg/kg PO QD) were 93.06% and 99.64%, respectively.

These data come from patent US20250129102A1, “CRYSTAL FORM OF PYRIMIDINE HETEROCYCLIC COMPOUND AND PREPARATION METHOD THEREFOR” (D3 Bio (Wuxi) Co., Ltd., priority 2021, published 2025).
